Experimental data published in patent US20250195653A1, “MULTIFUNCTIONAL NATURAL KILLER (NK) CELL ENGAGER COMBINATION THERAPY FOR TREATING HEMATOLOGICAL NEOPLASTIC DISORDERS” (SANOFI, priority 2023, published 2025).
Entries after “also recorded” stand apart in the source; their conditions may differ.

Assays:
NK cells [1] = assay: NK cell phenotype in the presence of AZA or VEN; format: cell-based, human; settings: AZA or VEN at defined concentrations (1 μM AZA, 1 nM VEN, 48 h)
Description: (§1) Human NK cells were purified from PBMCs using MACSxpress® Whole Blood NK Cell Isolation Kit (Miltenyi, ref #130-127-695) according to supplier recommendations. NK cells were then cultured in complete medium at 5×10^6 cells/mL at +37° C. at 5% CO2 (so called “resting” NK cells) overnight before being used in the activation assay.
(§2) Following the proper timing of incubation (from 6 h to 72 h), 0.05×10^6 cells/well MOLM-13 and NK cells in 96-well round bottom plates (Corning® Costar® Ultra-Low Attachment Multiple 96-Well Plate; Thermo Scientific, Denmark, ref #7007) were centrifuged at 300 g for 5 minutes at RT. Supernatant was aspirated and Tampon Running Buffer (Miltenyi, ref #130-091-2221) or the antibodies were added to the cell pellets (50 μL/well). In addition, 1 μL of each antibody was used to stain the compensation beads. The cells and the beads were incubated for 20 minutes at 4° C. Two consecutive washing steps were performed by adding 150 and then 200 μL of Tampon Running Buffer in the wells followed by centrifugation at 300 g for 5 minutes at 4° C.
(§3) Finally, 100 μL/well of PBS were added before reading the plate by MACSQuant Analyzer 16 Flow Cytometer. The propidium iodide (PI) marker of viability was added to every well reading at 1/10 dilution.

CD123 on MOLM-13 cells = assay: CD123 expression on MOLM-13 cells by flow cytometry; format: cell-based; settings: for CD123 expression level (MedFI) on MOLM-13 cells: 0.01 nM to 10 μM; for CD123 expression (median fluorescence intensity) on MOLM-13 cells: 1 nM and 1 μM, 6 h, 24 h or 48 h, MOLM-13 alone or with NK cells from two donors; for CD123 target expression on MOLM-13 AML tumor cells (conclusion): at the tested concentrations, up to 6 days of treatment
Description: as §2, §3
(§4) Finally, NK cell at effector:target (E:T) ratio of 1:1 (thus 0.05×10^6 cells/well) were incubated with MOLM-13 cell line at 37° C. in the presence of 5% CO2. After 6 h, 24 h, or 48 h, plates were centrifuged at 300 g for 5 minutes at RT. The Tampon Running Buffer or the selected antibodies were added to the cell pellets (50 μL/well) to assess cell viability and to perform the flow cytometry-based staining.

CD16a on NK cells = assay: CD16a expression on NK cells by flow cytometry; format: cell-based, human; settings: 1 μM AZA or 1 nM VEN
Description: as §1, §2, §3

MOLM-13 RFP AML cells = assay: Incucyte in vitro killing assay with NK effector cells, E:T 1:1; format: cell-based; settings: CD123 NKCE 5 ng/mL, AZA 600 nM or VEN 2 nM
Description: MOLM-13 RFP cells were generated by infecting MOLM-13 (DSMZ, ACC: 554) with the Incucyte® Nuclight Red Lentivirus (Sartorius #4476) to express a nuclear-restricted mKate2 (red fluorescent protein, RFP). MOLM-13 RFP cells were harvested in the same culture medium used for wild-type cells with the addition of 1 μg/mL of puromycin (Gibco, ref #A11138-03) to maintain the selection pressure.
Human NK cells were purified from PBMCs using MACSxpress® Whole Blood NK Cell Isolation Kit (Miltenyi, ref #130-127-695) according to supplier recommendations. […]
Cytotoxicity was evaluated using the Incucyte live-cells analysis system which allows to quantify the number of live fluorescent target cells over time.
First, 50 μL of CD123 NKCE and its isotype control were distributed in the appropriate wells of an F-bottom (flat-bottom) 96-well plate coated with poly-D-lysine (Greiner BioOne ref #655946). CD123 NKCE was tested at 5 ng/mL, while its isotype was evaluated at the highest concentration of 100 ng/ml. […]
The growth/proliferation of MOLM-13 RFP tumor cells was monitored by cell imaging up to 64 h using the Incucyte® S3 with standard scans every 4 h. […] Tumor cells growth/proliferation was calculated by counting the number of red cells at each time point, which was then normalized to the number of cells at time zero and expressed as a percentage.

[2] = system: CD123-positive MOLM-13 AML cell line; assay: 5-azacytidine and venetoclax flow cytometry cytotoxic assay, 48 h; format: cell-based
Description: The MOLM-13 cell line (DSMZ ACC 554) is an acute myeloid leukemia cell line. These cells are mostly round cells growing in suspension. For maintenance, cells were resuspended in fresh RPMI1640 medium supplemented with 10% Fetal Bovin Serum (FBS; Biowest, ref #S140H-100) and 2 mM L-Glutamine (Gibco, ref #25030-024) referred as complete culture medium at 0.3×10^6 cells/mL for 3 or 4 days.
On the day of the assay, the product was thawed and vortexed to eliminate potential aggregates before cascade dilution. A first dilution of 1/100 was performed in complete culture medium. Then, a dilution range from 20 μM (twice concentrated) to 20 pM (1/10 serial dilution) was performed in complete culture medium to assess the concentration-dependent effect of the single agent.
Similarly, stock solution of VEN was stored in complete culture medium at 4° C. On the day of the assay, the product was vortexed to eliminate potential aggregates before cascade dilution. A dilution range from 20 μM (twice concentrated) to 20 pM (1/10 serial dilution) was performed in complete culture medium to assess the concentration-dependent effect of the single agent.
(§5) Of these serial dilutions 100 μL of VEN (single agent) was added to each well that contains 100 μL of cell suspension to obtain a final concentration of 10, 1, 0.1, 0.01, 0.001, 0.0001, 0.00001 μM in a final volume of 200 μL/well.
CD123-positive MOLM-13 target cells were counted the day of the assay and the amount of cell needed for the experiment was evaluated. Target cells were seeded at 0.05×10^6 cells/50 μL of complete culture medium per well.
In the meantime, compound seral dilutions or the four defined concentrations were prepared and added to a U-bottom 96-well plate (100 μL/well). As controls, target cells alone without drugs, were cultured at the same concentration in complete culture medium (200 μL/well). Each condition was performed in monoplicate.
Culture plates were incubated at 37° C. in the presence of 5% CO2 for 48 h. The plates were centrifuged at 300 g for 5 minutes at RT and resuspended in 100 μL of PBS to the following reading by MACSQuant Analyzer 16 Flow. The marker of viability PI was added to every well reading at dilution 1/10.

NKp46 on NK cells = assay: NKp46 expression on NK cells by flow cytometry; format: cell-based, human; settings: 1 μM AZA or 1 nM VEN
Description: as §1, §2, §3

MOLM-13 cells = assay: MOLM-13 cell viability over 72 h and 6 days with AZA or VEN (flow cytometry); format: cell-based
Description: as §2, §3

NK cells [3] = assay: NK cell viability after treatment with AZA or VEN; format: cell-based, human; settings: 0.01 nM to 10 μM, 48 h, 3 independent NK donors
Description: as §1, §5
as §2, with “Two consecutive washing steps were performed by adding 150 and then 200 μL of Tampon Running Buffer in the wells followed by centrifugation at 300 g for 5 minutes at 4° C.” left out
as §3

[4] = system: CD123-positive MOLM-13 cells; assay: 5-azacytidine and venetoclax cytotoxic assays in the absence or presence of NK cells (6 h, 24 h, 48 h); format: cell-based; settings: VEN 1 μM
Description: as §4

[5] = at the dose of 400 mg; cited from earlier work
[6] = cited from earlier work

| SMILES | impact on NK cell phenotype (NK cells [1]) | CD123 expression level (MedFI) on MOLM-13 cells (CD123 on MOLM-13 cells; 48 h) | CD123 expression (median fluorescence intensity) on MOLM-13 cells (CD123 on MOLM-13 cells) | CD123 target expression on MOLM-13 AML tumor cells (conclusion) (CD123 on MOLM-13 cells) | CD16a expression level on NK cells (CD16a on NK cells) | target cell lysis, single agent (MOLM-13 RFP AML cells) | NKp46 expression level on NK cells (NKp46 on NK cells) | NK cell viability (NK cells [3]) | other results |
| --- | --- | --- | --- | --- | --- | --- | --- | --- | --- |
| Nc1ncn([C@@H]2O[C@H](CO)[C@@H](O)[C@H]2O)c(=O)n1 [AZA, 4-amino-1-beta-D-ribofuranosyl-s-triazin-2 (1H)-one] | minimal impact | minimal impact | did not impact | minimal impact | no impact | increased target cell lysis; also recorded: some target lysis | no impact | did not negatively impact; also recorded: no cytotoxic effect | CD123 median of fluorescence intensity (MedFI) on MOLM-13 cells (CD123 on MOLM-13 cells; AZA at 1 and 10 μM, 48 h): slight decrease; MOLM-13 AML cell viability ([2]; AZA at high concentration (10 μM), 48 h): strongly decreased; also recorded: cytotoxic activity; MOLM-13 AML cell viability ([2]; AZA at lower concentrations, 48 h, compared to non-treated control): No effect; MOLM-13 cell viability (MOLM-13 cells; AZA 600 nM and 3 μM): did not affect |
| CC1(C)CCC(CN2CCN(c3ccc(C(=O)NS(=O)(=O)c4ccc(NCC5CCOCC5)c([N+](=O)[O-])c4)c(Oc4cnc5[nH]ccc5c4)c3)CC2)=C(c2ccc(Cl)cc2)C1 [VEN] | minimal impact | mild reduction | did not impact | minimal impact | no impact | increased target cell lysis; also recorded: some target lysis | no impact | did not negatively impact; also recorded: no cytotoxic effect | MOLM-13 cell viability, concentration-dependent response ([2]; VEN 0.01 nM to 10 μM, 48 h): impact on MOLM-13 cell viability from 10 nM to 10 μM; killing activity as a single agent ([2]; VEN at its plasma concentration, 2 μM): very strong killing activity; killing potential on MOLM-13 cells [4]: enhanced killing potential; impact on MOLM-13 cell viability ([4]; 6 h): no impact; impact on MOLM-13 cell viability ([4]; 24 h): moderate; impact on MOLM-13 cell viability ([4]; 48 h): strong impact; MOLM-13 viability (MOLM-13 cells; VEN 2, 5 and 10 nM): impacted MOLM-13 viability mainly after 6 days; plasma concentration [5]: 2000 nM; aqueous solubility [6]: very low |
